From patent EP4467141A1, “PYRAZOLO-QUINOLINES AS SELECTIVE INHIBITORS OF GENOTOXIC STRESS-INDUCED IKK/NF- KB PATHWAYS FOR CANCER THERAPY” (Max-Delbrück-Centrum für Molekulare Medizin in der …, priority 2023, dated 2024)
Where two headings read alike, the source gives them in different places.

Assays:
Assay in all cases: Kinase panel study
Format in all cases: biochemical
CLK1 = target: T1, CLK1 (Homo sapiens, UniProt P49759)
T1 construct: purchased Thermo Fisher Scientific
Procedure: (§1) The Kinase panel study was entirely provided by Thermo Fisher Scientific using the two lead compounds MW01 and MW05 as well as their derivatives (MW01-E06, MW01-E10, MW01-E14, MW01-E18, MW05-E2, MW05-E3, MW05-E9 and MW05-E10. The experiment was performed using the ZLyte or Adapta protocol according to manufacturer standard operating procedures.
(§2) Based on their similar effects in our screen and molecular analysis, MW01 and MW05 were used in comparative target deconvolution studies seeking common targets despite their distinct structures. To eliminate previously identified kinases regulating NF-κB activity, such as IKK, as possible targets of MW01 and MW05, an in vitro kinase inhibition assay was performed. […] We next investigated if any of the shared kinase targets of MW01 and MW05 play a role in genotoxic stress-induced NF-κB activity and established several criteria to narrow down pathway-relevant targets. Considering the similar NF-κB inhibition phenotypes of both compounds, we hypothesized first that the target should be shared by both lead compounds. Second, based on the CaCo2 recovery values and experimental treatment concentration of 10 µM), the putative target kinase should have a low IC50 of, at most, 2000 nM for both lead compounds in the in vitro kinase panel (Fig. 2A). Based on these criteria alone, we arrived at a relatively short list of potential targets for further analysis, leaving only PIK3CG, PIK3C2G, and CLK2 (Fig. 2B). IC50 values for PIK3C2G by both lead compounds agreed best with these criteria, but RNA expression analysis indicates high tissue specificity as well as lack of expression of this kinase in our U2-OS model cell line, which we then eliminated from further analysis (Uhlén et al., 2015). […] Table 6: Percentage of inhibition of the indicated kinases by MW01 or MW05 at either 10 µM or 1 µM. n.d. = not determined. […]

CLK2 = target: T2, CLK2 (Homo sapiens, UniProt P49760); conditions: for inhibition at 1 µM: 1000nM; for IC50: in vitro kinase panel
T2 construct: purchased Thermo Fisher Scientific
Procedure: as §1, §2
(§3) To validate the structural backbones of MW01 and MW05 and leverage additional structures in discerning on- and off-target activity, we screened more than 30 structural derivatives for similar NF-κB pathway inhibition compared to our lead compounds following irradiation or TNF stimulation (Table 1 and 2). Several structural derivatives of each lead compound were identified which reduced p-p65 and NFKBIA expression in an irradiation-specific manner. (Fig 3A, B, C, Fig. 8). […] As expected for structurally similar derivatives, kinase inhibition profiles of active derivatives were similar to the respective lead compounds, validating the common structural backbones of each as kinase inhibitors. However, inhibition of several kinases was lost some derivatives of MW01 and MW05, including PI3K isoforms, adding further evidence that the NF-κB inhibition by our compounds is not mediated by inhibition of these kinases. […] Considering the phenotypic similarity between two structurally distinct lead compounds, the agreement of the derivatives with our kinase IC50 criteria, and significant results following siRNA knockdown of CLK2 and CLK4, we proceeded to further characterize our lead compounds.

CLK4 = target: T3, CLK4 (Homo sapiens, UniProt Q9HAZ1)
T3 construct: purchased Thermo Fisher Scientific
Procedure: as §1, §2, §3

CLK3 = target: T4, CLK3 (Homo sapiens, UniProt P49761); conditions: for CLK3 inhibition: in vitro kinase assay, isoform specificity; for inhibition at 10 µM: CLK3, compound at 10µM
T4 construct: purchased Thermo Fisher Scientific
Procedure: as §1, with “procedures. […]” for “procedures.”

DNA-PK = target: T5, DNA-PK (Homo sapiens, UniProt P78527); conditions: for inhibition at 1 µM: 1000nM
T5 construct: purchased Thermo Fisher Scientific
In short: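 Compounds were tested in vitro against the kinase panel by a service lab. Assays followed standard ZLyte or Adapta protocols. Activity was recorded as % inhibition at 10 µM or 1 µM, with IC50 values where determined.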

DYRK1A = target: T6, DYRK1A (Homo sapiens, UniProt Q13627); conditions: for inhibition at 1 µM: 1000nM
T6 construct: purchased Thermo Fisher Scientific
In short: (§4)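 Inhibition was measured in an outsourced in vitro kinase panel using the ZLyte or Adapta format under the provider's standard procedures. Values are percent inhibition at 10 µM or 1 µM compound, and IC50s were also obtained.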

DYRK1B = target: T7, DYRK1B (Homo sapiens, UniProt Q9Y463); conditions: for inhibition at 1 µM: 1000nM
T7 construct: purchased Thermo Fisher Scientific
In short: as §4

LRRK2 = target: T8, LRRK2 (Homo sapiens, UniProt Q5S007); conditions: for inhibition at 1 µM: 1000nM
T8 construct: purchased Thermo Fisher Scientific
In short: as §4

PI4K2A (PI4K2 alpha) = target: T9, PI4K2A (PI4K2 alpha) (Homo sapiens, UniProt Q9BTU6); conditions: for inhibition at 1 µM: 1000nM
T9 construct: purchased Thermo Fisher Scientific
In short: as §4

[1] = target: T10, PIK3CA/PIK3R1 (p11 0 alpha/p85 alpha) (Homo sapiens, UniProt P42336); conditions: for inhibition at 1 µM: 1000nM
T10 construct: purchased Thermo Fisher Scientific
In short: as §4

[2] = 10000nM, read-out: Percentage of inhibition
[3] = first CLK2 line of the table, read-out: Percentage of inhibition
[4] = second CLK2 line of the table, read-out: Percentage of inhibition
[5] = 10000nM, first CLK2 line of the table, read-out: Percentage of inhibition
[6] = 10000nM, second CLK2 line of the table, read-out: Percentage of inhibition
[7] = read-out: Percentage of inhibition
[8] = CLK1, compound at 10µM, read-out: % of Inhibition
[9] = CLK2, compound at 10µM, read-out: % of Inhibition
[10] = CLK4, compound at 10µM, read-out: % of Inhibition
[11] = DNA-PK, compound at 10µM, read-out: % of Inhibition
[12] = DYRK1A, compound at 10µM, read-out: % of Inhibition
[13] = DYRK1B, compound at 10µM, read-out: % of Inhibition
[14] = LRRK2, compound at 10µM, read-out: % of Inhibition
[15] = PI4K2A (PI4K2 alpha), compound at 10µM, read-out: % of Inhibition
[16] = PIK3CA/PIK3R1, compound at 10µM, read-out: % of Inhibition

T2 sequence (P49760 whole entry): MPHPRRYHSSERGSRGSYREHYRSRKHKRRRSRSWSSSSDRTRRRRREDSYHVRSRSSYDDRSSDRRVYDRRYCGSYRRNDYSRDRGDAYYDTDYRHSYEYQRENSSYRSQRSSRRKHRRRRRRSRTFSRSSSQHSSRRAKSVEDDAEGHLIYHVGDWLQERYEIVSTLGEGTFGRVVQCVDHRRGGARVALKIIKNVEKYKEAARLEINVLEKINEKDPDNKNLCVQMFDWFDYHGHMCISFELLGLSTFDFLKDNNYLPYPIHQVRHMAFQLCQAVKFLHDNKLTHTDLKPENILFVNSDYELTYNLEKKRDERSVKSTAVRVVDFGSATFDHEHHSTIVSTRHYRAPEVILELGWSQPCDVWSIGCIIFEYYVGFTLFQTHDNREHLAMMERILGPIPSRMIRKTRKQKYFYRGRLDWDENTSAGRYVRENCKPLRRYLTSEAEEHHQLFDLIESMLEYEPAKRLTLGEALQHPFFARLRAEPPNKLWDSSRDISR
T7 sequence (Q9Y463 whole entry): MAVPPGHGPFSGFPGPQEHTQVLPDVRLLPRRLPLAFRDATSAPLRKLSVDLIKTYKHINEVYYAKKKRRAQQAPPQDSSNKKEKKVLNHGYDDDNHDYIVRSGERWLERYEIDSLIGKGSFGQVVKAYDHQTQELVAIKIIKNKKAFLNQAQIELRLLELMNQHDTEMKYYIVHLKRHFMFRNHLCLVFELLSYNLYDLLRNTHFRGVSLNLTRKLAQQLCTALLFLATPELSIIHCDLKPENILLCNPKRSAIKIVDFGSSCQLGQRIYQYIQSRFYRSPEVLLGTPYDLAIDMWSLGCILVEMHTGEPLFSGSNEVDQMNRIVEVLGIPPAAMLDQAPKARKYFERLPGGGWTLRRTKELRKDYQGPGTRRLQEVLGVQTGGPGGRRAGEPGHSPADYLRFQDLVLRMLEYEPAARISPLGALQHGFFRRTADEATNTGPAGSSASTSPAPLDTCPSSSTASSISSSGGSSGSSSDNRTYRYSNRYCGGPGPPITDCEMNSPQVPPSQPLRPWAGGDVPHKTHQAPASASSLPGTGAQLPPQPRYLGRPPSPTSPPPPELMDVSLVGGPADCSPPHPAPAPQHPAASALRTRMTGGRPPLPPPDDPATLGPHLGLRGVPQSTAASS
T9 sequence (Q9BTU6 whole entry): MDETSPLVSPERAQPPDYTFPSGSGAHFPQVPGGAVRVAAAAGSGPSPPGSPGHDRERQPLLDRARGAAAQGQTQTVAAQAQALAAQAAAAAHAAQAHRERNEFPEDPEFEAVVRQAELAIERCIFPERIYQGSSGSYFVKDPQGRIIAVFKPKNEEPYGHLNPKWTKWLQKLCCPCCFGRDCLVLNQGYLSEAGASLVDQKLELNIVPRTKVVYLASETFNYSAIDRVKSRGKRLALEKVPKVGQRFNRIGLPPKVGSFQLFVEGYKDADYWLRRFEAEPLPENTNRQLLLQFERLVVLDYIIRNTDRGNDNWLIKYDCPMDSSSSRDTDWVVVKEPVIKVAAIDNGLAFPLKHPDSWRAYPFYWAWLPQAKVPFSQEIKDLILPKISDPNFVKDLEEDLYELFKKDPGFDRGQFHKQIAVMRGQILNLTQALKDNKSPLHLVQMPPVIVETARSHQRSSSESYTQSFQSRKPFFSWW
T3 sequence (Q9HAZ1 whole entry): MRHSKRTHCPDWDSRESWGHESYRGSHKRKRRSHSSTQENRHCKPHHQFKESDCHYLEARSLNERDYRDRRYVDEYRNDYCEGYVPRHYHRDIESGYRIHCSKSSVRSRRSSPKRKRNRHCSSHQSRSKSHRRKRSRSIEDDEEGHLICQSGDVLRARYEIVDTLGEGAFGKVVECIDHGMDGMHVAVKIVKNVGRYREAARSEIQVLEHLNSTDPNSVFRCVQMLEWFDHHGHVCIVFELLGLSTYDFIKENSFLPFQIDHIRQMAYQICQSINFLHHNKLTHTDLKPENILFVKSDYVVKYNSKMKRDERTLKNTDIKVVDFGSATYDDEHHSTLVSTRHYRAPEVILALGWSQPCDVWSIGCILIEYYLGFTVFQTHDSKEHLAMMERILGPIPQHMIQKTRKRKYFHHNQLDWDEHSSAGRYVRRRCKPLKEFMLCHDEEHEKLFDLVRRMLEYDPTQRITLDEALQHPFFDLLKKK
T4 sequence (P49761 whole entry, canonical isoform): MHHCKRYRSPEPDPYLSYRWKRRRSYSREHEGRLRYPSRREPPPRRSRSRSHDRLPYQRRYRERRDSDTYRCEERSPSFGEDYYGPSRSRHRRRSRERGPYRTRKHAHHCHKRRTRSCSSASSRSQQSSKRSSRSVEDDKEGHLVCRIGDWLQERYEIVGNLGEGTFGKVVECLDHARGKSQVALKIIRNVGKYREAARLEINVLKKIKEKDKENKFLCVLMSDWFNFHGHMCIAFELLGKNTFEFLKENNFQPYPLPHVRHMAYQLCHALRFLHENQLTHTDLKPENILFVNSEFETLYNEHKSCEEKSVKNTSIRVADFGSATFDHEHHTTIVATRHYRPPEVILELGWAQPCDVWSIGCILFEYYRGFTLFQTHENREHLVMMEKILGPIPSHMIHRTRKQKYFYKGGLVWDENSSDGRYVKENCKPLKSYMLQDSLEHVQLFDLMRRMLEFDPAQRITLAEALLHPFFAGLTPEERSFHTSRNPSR
T10 sequence (P42336 whole entry): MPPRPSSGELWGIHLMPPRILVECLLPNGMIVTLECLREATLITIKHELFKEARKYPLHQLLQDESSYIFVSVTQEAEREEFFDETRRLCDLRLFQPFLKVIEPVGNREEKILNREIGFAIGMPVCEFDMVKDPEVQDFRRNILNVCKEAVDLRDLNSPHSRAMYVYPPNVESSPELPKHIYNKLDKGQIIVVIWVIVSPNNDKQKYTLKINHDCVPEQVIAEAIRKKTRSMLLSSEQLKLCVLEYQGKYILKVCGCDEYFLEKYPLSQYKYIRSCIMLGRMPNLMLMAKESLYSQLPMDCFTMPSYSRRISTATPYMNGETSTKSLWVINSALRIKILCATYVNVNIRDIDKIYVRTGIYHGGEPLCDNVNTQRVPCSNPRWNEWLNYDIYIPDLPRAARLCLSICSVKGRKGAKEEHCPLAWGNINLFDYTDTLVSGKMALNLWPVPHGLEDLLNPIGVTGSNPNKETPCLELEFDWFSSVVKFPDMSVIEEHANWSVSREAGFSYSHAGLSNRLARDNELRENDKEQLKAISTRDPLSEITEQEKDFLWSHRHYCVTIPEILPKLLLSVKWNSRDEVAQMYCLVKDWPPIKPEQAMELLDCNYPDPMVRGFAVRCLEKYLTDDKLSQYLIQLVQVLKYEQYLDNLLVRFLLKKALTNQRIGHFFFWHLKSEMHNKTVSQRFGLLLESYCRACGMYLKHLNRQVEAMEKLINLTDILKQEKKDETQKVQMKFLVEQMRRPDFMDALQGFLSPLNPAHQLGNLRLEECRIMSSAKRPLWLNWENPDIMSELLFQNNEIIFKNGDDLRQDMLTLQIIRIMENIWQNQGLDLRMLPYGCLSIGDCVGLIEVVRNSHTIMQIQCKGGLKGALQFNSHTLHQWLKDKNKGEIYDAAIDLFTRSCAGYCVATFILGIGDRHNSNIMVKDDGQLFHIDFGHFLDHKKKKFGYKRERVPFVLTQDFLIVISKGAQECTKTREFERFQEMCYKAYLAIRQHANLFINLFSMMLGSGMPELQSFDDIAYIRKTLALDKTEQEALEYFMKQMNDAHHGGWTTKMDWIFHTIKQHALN
T10 sequence (P27986 whole entry partner): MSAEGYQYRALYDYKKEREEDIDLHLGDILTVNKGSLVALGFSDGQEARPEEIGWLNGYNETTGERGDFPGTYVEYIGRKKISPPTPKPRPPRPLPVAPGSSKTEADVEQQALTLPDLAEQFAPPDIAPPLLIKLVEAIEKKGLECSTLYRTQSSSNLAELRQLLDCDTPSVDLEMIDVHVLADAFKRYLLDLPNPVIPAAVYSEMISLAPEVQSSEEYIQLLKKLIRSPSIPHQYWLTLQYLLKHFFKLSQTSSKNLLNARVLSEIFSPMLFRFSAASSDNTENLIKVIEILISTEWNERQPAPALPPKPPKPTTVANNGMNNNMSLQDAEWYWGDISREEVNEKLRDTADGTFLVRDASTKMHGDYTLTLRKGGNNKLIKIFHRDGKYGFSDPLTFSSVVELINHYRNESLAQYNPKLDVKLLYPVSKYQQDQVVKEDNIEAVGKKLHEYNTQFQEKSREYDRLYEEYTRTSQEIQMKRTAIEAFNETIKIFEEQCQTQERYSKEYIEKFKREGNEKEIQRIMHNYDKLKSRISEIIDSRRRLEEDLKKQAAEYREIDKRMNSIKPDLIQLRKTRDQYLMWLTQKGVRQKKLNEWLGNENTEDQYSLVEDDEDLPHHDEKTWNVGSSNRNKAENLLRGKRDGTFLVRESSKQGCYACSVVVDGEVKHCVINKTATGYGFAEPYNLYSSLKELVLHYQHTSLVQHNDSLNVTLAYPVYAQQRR
T1 sequence (P49759 whole entry): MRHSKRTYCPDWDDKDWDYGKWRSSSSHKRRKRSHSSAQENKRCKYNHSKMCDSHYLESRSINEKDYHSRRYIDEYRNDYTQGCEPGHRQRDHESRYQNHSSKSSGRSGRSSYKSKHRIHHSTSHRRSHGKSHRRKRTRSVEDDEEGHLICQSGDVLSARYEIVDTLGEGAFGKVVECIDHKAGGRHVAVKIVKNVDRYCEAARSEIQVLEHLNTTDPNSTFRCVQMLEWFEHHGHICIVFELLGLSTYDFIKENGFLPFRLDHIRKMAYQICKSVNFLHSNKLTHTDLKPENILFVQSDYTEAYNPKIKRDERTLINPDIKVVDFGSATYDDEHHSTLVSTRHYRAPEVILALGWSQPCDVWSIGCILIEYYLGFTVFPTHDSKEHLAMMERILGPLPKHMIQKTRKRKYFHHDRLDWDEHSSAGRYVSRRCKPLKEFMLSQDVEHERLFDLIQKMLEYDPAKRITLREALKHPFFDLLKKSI

For `COc1ccc2c(c1OC)c(=O)n1c3ccc(O)cc3c3ccnc2c31` [MW01, 5-Hydroxy-10,11-dimethoxy-9H-benzo[c]indolo[3,2,1-ij][1,5]naphthyridin-9-one], the inhibition at 10 µM (CLK1; [2]) was 88%, the inhibition at 1 µM (CLK2; [3]) was 78% and the inhibition at 1 µM (CLK2; [4]) was 78%. It also gave an inhibition at 10 µM (CLK2; [5]) of 91%, an inhibition at 10 µM (CLK2; [6]) of 91% and an IC50 (CLK2) of 360 nM. For the same compound, the inhibition at 10 µM (CLK4; [2]) was 91%, the CLK3 inhibition (CLK3) was “largely spare CLK3” and the inhibition at 1 µM (DNA-PK; [7]) was 86%. For the same compound, the inhibition at 10 µM (DNA-PK; [2]) was 96%, the inhibition at 1 µM (DYRK1A; [7]) was 80% and the inhibition at 10 µM (DYRK1A; [2]) was 90%. It also gave an inhibition at 1 µM (DYRK1B; [7]) of 62%, an inhibition at 10 µM (DYRK1B; [2]) of 82% and an inhibition at 1 µM (LRRK2; [7]) of 83%. The inhibition at 10 µM (LRRK2; [2]) was 87%, the inhibition at 1 µM (PI4K2A (PI4K2 alpha); [7]) was 7% and the inhibition at 10 µM (PI4K2A (PI4K2 alpha); [2]) was 25%. The inhibition at 1 µM [1, 7] was 81% and the inhibition at 10 µM [1, 2] was 86%.

Compound `COc1ccc2c(c1)c1ccnc3c4nc(OC)ccc4c(=O)n2c13` [MW01-E6, 5,15-dimethoxy-1,11,14-triazapentacyclo[10.7.1,0^2,7.0^8,^20.0^13,^18]icosa-2(7),3,5,8(20),9,11,13(18),14,16-nonaen-19-one] has an inhibition at 10 µM (CLK1; [8]) of 10%, an inhibition at 10 µM (CLK2; [9]) of 18% and an inhibition at 10 µM (CLK4; [10]) of 58%. For the same compound, the inhibition at 10 µM (CLK3) was 9%, the inhibition at 10 µM (DNA-PK; [11]) was 9% and the inhibition at 10 µM (DYRK1A; [12]) was 14%. For the same compound, the inhibition at 10 µM (DYRK1B; [13]) was 20%, the inhibition at 10 µM (LRRK2; [14]) was 64% and the inhibition at 10 µM (PI4K2A (PI4K2 alpha); [15]) was 22%. It also gave an inhibition at 10 µM [1, 16] of 38%.

For `O=c1c2cc(O)ccc2c2nccc3c4cc(O)ccc4n1c32` [MW01-E10, 5,16-dihydroxy-1,11-diazapentacyclo[10.7.1.0^2,^7.0^8,^20.0^13,^18]icosa-2(7),3,5,8(20),9,11,13(18),14,16-nonaen-19-one], the inhibition at 10 µM (CLK1; [8]) was 69%, the inhibition at 10 µM (CLK2; [9]) was 70% and the inhibition at 10 µM (CLK4; [10]) was 99%. The inhibition at 10 µM (CLK3) was 35%, the inhibition at 10 µM (DNA-PK; [11]) was 62% and the inhibition at 10 µM (DYRK1A; [12]) was 56%. The inhibition at 10 µM (DYRK1B; [13]) was 81%, the inhibition at 10 µM (LRRK2; [14]) was 86% and the inhibition at 10 µM (PI4K2A (PI4K2 alpha); [15]) was 13%. The inhibition at 10 µM [1, 16] was 90%.

Work on `COc1ccc2c(c1)c1ccnc3c4ccnc(OC)c4c(=O)n2c13` [MW01-E14, 5,17-dimethoxy-1,11,16-triazapentacyclo[10.7.1.0^2,^7.0^8,^20.0^13,^18]icosa-2(7),3,5,8(20),9,11,13(18),14,16-nonaen-19-one] yielded an inhibition at 10 µM (CLK1; [8]) of 6%, an inhibition at 10 µM (CLK2; [9]) of 20% and an inhibition at 10 µM (CLK4; [10]) of 67%. For the same compound, the inhibition at 10 µM (CLK3) was 7%, the inhibition at 10 µM (DNA-PK; [11]) was 43% and the inhibition at 10 µM (DYRK1A; [12]) was 12%. It also gave an inhibition at 10 µM (DYRK1B; [13]) of 23%, an inhibition at 10 µM (LRRK2; [14]) of -4% and an inhibition at 10 µM (PI4K2A (PI4K2 alpha); [15]) of 35%. For the same compound, the inhibition at 10 µM [1, 16] was 80%.

`O=c1c2cnccc2c2nccc3c4cc(O)ccc4n1c32` [MW01-E18, 5-hydroxy-1,11,16-triazapentacyclo[10.7.1.0^2,^7.0^8,^20.0^13,^18]icosa-2(7),3,5,8(20),9,11,13(18),14,16-nonaen-19-one] showed an inhibition at 10 µM (CLK1; [8]) of 61%, an inhibition at 10 µM (CLK2; [9]) of 70% and an inhibition at 10 µM (CLK4; [10]) of 98%. The inhibition at 10 µM (CLK3) was 35%, the inhibition at 10 µM (DNA-PK; [11]) was 94% and the inhibition at 10 µM (DYRK1A; [12]) was 65%. For the same compound, the inhibition at 10 µM (DYRK1B; [13]) was 68%, the inhibition at 10 µM (LRRK2; [14]) was 75% and the inhibition at 10 µM (PI4K2A (PI4K2 alpha); [15]) was 30%. The inhibition at 10 µM [1, 16] was 90%.

With `COc1ccc2cc3c(N)nn(C(=O)c4cccc(N(C)C)c4)c3nc2c1` [MW05, (3-Amino-7-methoxypyrazolo[3,4-b]quinolin-1-yl)-[3-(dimethylamino)phenyl]methanone] the inhibition at 10 µM (CLK1; [2]) was 73%, the inhibition at 1 µM (CLK2; [3]) was 40% and the inhibition at 1 µM (CLK2; [4]) was 40%. For the same compound, the inhibition at 10 µM (CLK2; [5]) was 86%, the inhibition at 10 µM (CLK2; [6]) was 72% and the IC50 (CLK2) was 1440 nM. The inhibition at 10 µM (CLK4; [2]) was 94%, the CLK3 inhibition (CLK3) was “largely spare CLK3” and the inhibition at 1 µM (DNA-PK; [7]) was 30%. For the same compound, the inhibition at 10 µM (DNA-PK; [2]) was 61%, the IC50 (DNA-PK; in vitro kinase panel, sub-2000 nM criterion) was no less than 2000 nM and the inhibition at 1 µM (DYRK1A; [7]) was 22%. The inhibition at 10 µM (DYRK1A; [2]) was 60%, the inhibition at 1 µM (DYRK1B; [7]) was 28% and the inhibition at 10 µM (DYRK1B; [2]) was 69%. It also gave an inhibition at 1 µM (LRRK2; [7]) of -3%, an inhibition at 10 µM (LRRK2; [2]) of 5% and an inhibition at 1 µM (PI4K2A (PI4K2 alpha); [7]) of -7%. The inhibition at 10 µM (PI4K2A (PI4K2 alpha); [2]) was -1%, the inhibition at 1 µM [1, 7] was 14% and the inhibition at 10 µM [1, 2] was 52%.

For `COc1ccc2nc3c(cc2c1)c(N)nn3C(=O)c1cccc(N(C)C)c1` [MW05-E2, 1-[3-(dimethylamino)benzoyl]-6-methoxy-1H-pyrazolo[3,4-b]quinolin-3-amine], the inhibition at 10 µM (CLK1; [8]) was 16%, the inhibition at 10 µM (CLK2; [9]) was 74% and the CLK2 inhibition (CLK2; in vitro kinase assay) was “inhibited CLK2”. It also gave an inhibition at 10 µM (CLK4; [10]) of 75%, an inhibition at 10 µM (CLK3) of 5% and an inhibition at 10 µM (DNA-PK; [11]) of 16%. It also gave an inhibition at 10 µM (DYRK1A; [12]) of 53%, an inhibition at 10 µM (DYRK1B; [13]) of 84% and an inhibition at 10 µM (LRRK2; [14]) of 8%. It also gave an inhibition at 10 µM (PI4K2A (PI4K2 alpha); [15]) of -4% and an inhibition at 10 µM [1, 16] of 26%.
